Assay results taken from ChEMBL document CHEMBL1158115, “Acylphloroglucinol derivatives from Hypericum prolificum” (J Nat Prod, 2006).
Activity calls are given as the source filed them. No cut-off for these calls is given here.

Assays:
MCF7 = test: Cytotoxicity against human MCF7 cells by MTT assay; type: functional, cell-based
AGS = test: Cytotoxicity against human AGS cells by MTT assay; type: functional, cell-based
SF-268 = test: Cytotoxicity against human SF-268 cells by MTT assay; type: functional, cell-based
NCI-H460 = test: Cytotoxicity against human NCI-H460 cells by MTT assay; type: functional, cell-based
HCT-116 = test: Cytotoxicity against human HCT116 cells by MTT assay; type: functional, cell-based
[1] = target: Prostaglandin G/H synthase 1 (Homo sapiens) (UniProt P23219); test: Inhibition of cyclooxygenase 1 at 103.7 uM
[2] = target: T1, Prostaglandin G/H synthase 2 (Homo sapiens) (UniProt P35354); test: Inhibition of cyclooxygenase 2 at 103.7 uM
T1 sequence (whole entry): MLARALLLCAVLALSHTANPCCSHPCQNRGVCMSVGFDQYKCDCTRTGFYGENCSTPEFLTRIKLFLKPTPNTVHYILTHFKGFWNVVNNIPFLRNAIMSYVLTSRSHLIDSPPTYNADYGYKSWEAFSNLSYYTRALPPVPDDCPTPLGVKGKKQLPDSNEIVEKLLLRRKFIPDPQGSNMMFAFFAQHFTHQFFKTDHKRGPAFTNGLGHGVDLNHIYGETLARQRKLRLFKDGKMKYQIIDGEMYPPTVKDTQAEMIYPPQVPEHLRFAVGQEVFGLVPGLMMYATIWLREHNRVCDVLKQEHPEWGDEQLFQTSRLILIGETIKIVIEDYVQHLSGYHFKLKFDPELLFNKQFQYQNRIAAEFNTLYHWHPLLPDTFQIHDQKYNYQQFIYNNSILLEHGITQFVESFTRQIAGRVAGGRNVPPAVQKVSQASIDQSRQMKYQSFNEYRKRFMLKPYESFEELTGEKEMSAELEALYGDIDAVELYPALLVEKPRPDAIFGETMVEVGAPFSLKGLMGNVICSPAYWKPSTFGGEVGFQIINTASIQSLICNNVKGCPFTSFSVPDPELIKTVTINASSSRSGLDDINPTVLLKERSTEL

Chain of Prostaglandin G/H synthase 1 (Homo sapiens) (P23219 whole entry): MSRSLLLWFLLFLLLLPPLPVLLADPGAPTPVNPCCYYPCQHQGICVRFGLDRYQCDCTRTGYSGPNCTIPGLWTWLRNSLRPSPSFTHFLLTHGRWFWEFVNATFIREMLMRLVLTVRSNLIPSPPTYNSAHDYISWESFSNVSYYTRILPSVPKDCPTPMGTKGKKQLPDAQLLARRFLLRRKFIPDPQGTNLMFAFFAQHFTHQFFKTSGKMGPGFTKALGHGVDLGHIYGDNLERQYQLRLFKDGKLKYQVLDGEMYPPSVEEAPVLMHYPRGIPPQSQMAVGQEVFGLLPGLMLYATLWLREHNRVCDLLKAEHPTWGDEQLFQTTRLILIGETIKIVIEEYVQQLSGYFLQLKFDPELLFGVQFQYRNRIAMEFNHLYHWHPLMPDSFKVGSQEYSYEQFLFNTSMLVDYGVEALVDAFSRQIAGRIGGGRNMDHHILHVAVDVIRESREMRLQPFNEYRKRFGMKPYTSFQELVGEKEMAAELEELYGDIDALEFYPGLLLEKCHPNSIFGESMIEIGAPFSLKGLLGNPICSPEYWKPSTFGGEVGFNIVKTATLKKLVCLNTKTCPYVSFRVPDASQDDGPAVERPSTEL

| Activity [1] | Activity [2] | SMILES | IC50 (MCF7) | IC50 (AGS) | IC50 (SF-268) | IC50 (NCI-H460) | IC50 (HCT-116) | Activity (MCF7) | Activity (AGS) | Activity (SF-268) | Activity (NCI-H460) | Activity (HCT-116) |
| --- | --- | --- | --- | --- | --- | --- | --- | --- | --- | --- | --- | --- |
|  |  | COc1cccc2c1C(=O)c1c(O)c3c(c(O)c1C2=O)C[C@@](O)(C(=O)CO)C[C@@H]3O[C@H]1C[C@H](N)[C@H](O)[C@H](C)O1 [DOXORUBICIN] | 0.43 µM | 0.31 µM | 1.55 µM | 0.66 µM | 0.41 µM |  |  |  |  |  |
| inactive | inactive | CCC(C)C(=O)C12C(=O)C=C(O)C(C[C@H](CC=C(C)C)[C@@]1(C)CC/C=C(\C)CCC=C(C)C)C2=O (stereo partly specified) |  |  |  |  |  | inactive | inactive | inactive | inactive | inactive |
| inactive | inactive | CCC(C)C(=O)c1c(O)cc(O)c2c1O[C@](C)(CC/C=C(\C)CCC=C(C)C)[C@@H](CC=C(C)C)C2 (stereo partly specified) [PROLIFICIN A] | 23.7 µM | 32.4 µM | 30.9 µM | 29.9 µM | 35.1 µM |  |  |  |  |  |
| inactive | inactive | CC(C)=CCC/C(C)=C/CC[C@]1(C)[C@@H](CC=C(C)C)CC2C(=O)C1(C(=O)C(C)C)C(=O)C=C2O (stereo partly specified) |  |  |  |  |  | inactive | inactive | inactive | inactive | inactive |
